Assay results as given in ChEMBL document CHEMBL1201862, “PubChem BioAssay data set” (2004).
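Briefly, cells in 96-well plates were exposed to five compound concentrations for 48 h, and endpoints were estimated by linear interpolation. Abbreviation: GI50, concentration required for 50% inhibition of growth.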 Calls of active or inactive are those of the source. Cut-off read from the data, not from the text of the source: active = GI50 up to about 1.1 µM and inactive = higher.

Experiments:
Test in all cases: DTP human tumour cell line panel, 48 h
CAKI-1 = tested on: CAKI-1
HCT-15 = tested on: HCT-15
786-0 = tested on: 786-0
RPMI-8226 = tested on: RPMI-8226
RXF 393 = tested on: RXF 393
T47D = tested on: T47D
OVCAR-4 = tested on: OVCAR-4
NCI-H522 = tested on: NCI-H522
SK-MEL-2 = tested on: SK-MEL-2
CCRF-CEM = tested on: CCRF-CEM
HCC 2998 = tested on: HCC 2998
LOX IMVI = tested on: LOX IMVI
MDA-MB-231 = tested on: MDA-MB-231
NCI/ADR-RES = tested on: NCI/ADR-RES
ACHN = tested on: ACHN
SK-OV-3 = tested on: SK-OV-3
SK-MEL-28 = tested on: SK-MEL-28
NCI-H460 = tested on: NCI-H460
SW-620 = tested on: SW-620
UACC-62 = tested on: UACC-62

In the case of `COc1ccc(N2C(=O)CSC2c2cc3cc(Br)ccc3nc2Cl)cc1` (stereo not given), the GI50 (CAKI-1) is reported as 27.5 µM (inactive), the GI50 (HCT-15) is reported as 31.5 µM and the GI50 (786-0) is reported as > 50 µM (inactive). The GI50 (RPMI-8226) was 41.8 µM (inactive), the GI50 (RXF 393) was > 50 µM (inactive) and the GI50 (T47D) was 38.3 µM (inactive). For the same molecule, the GI50 (OVCAR-4) was > 50 µM (inactive), the GI50 (NCI-H522) was 27.4 µM (inactive) and the GI50 (SK-MEL-2) was 35.6 µM (inactive). For the same molecule, the GI50 (CCRF-CEM) was 31.6 µM (inactive), the GI50 (HCC 2998) was > 50 µM (inactive) and the GI50 (LOX IMVI) was 37.6 µM (inactive). For the same molecule, the GI50 (MDA-MB-231) was > 50 µM (inactive), the GI50 (NCI/ADR-RES) was 44.1 µM (inactive) and the GI50 (ACHN) was 19 µM (inactive). The GI50 (SK-OV-3) was > 50 µM (inactive), the GI50 (SK-MEL-28) was > 50 µM (inactive) and the GI50 (NCI-H460) was 22.1 µM (inactive). For the same molecule, the GI50 (SW-620) was > 50 µM (inactive) and the GI50 (UACC-62) was 10.3 µM (inactive).

`CC(C)NC(=O)OCc1c(COC(=O)NC(C)C)n(C)c2c1ccc1ccccc12` was tested, and the GI50 (CAKI-1) was 0.542 µM (active), the GI50 (HCT-15) was 1.54 µM and the GI50 (786-0) was 1.21 µM (inactive). The GI50 (RPMI-8226) was 1.19 µM (inactive), the GI50 (RXF 393) was 1.25 µM (inactive) and the GI50 (T47D) was 0.247 µM (active). The GI50 (OVCAR-4) was 2.75 µM (inactive), the GI50 (NCI-H522) was 0.0417 µM (active) and the GI50 (SK-MEL-2) was 1.78 µM (inactive). For the same molecule, the GI50 (CCRF-CEM) was 0.112 µM (active), the GI50 (HCC 2998) was 2.88 µM (inactive) and the GI50 (LOX IMVI) was 1.16 µM (inactive). For the same molecule, the GI50 (MDA-MB-231) was 1.57 µM (inactive), the GI50 (NCI/ADR-RES) was 2.29 µM (inactive) and the GI50 (ACHN) was 1.48 µM (inactive). For the same molecule, the GI50 (SK-OV-3) was 9.82 µM (inactive), the GI50 (SK-MEL-28) was 1.99 µM (inactive) and the GI50 (NCI-H460) was 2.53 µM (inactive). The GI50 (SW-620) was 1.37 µM (inactive) and the GI50 (UACC-62) was 1.44 µM (inactive).

In the case of `COc1cc2c(cc1OC)C1CN3C(=O)CCC3C(O)C1c1cc(OC)c(OC)cc1-2` (stereo not given), the GI50 (CAKI-1) is reported as > 100 µM (inactive), the GI50 (HCT-15) is reported as > 100 µM and the GI50 (786-0) is reported as > 100 µM (inactive). For the same molecule, the GI50 (RPMI-8226) was > 100 µM (inactive), the GI50 (RXF 393) was > 100 µM (inactive) and the GI50 (T47D) was > 100 µM (inactive). The GI50 (OVCAR-4) was > 100 µM (inactive), the GI50 (NCI-H522) was > 100 µM (inactive) and the GI50 (SK-MEL-2) was > 100 µM (inactive). For the same molecule, the GI50 (CCRF-CEM) was > 100 µM (inactive), the GI50 (HCC 2998) was > 100 µM (inactive) and the GI50 (LOX IMVI) was > 100 µM (inactive). For the same molecule, the GI50 (MDA-MB-231) was > 100 µM (inactive), the GI50 (NCI/ADR-RES) was > 100 µM (inactive) and the GI50 (ACHN) was > 100 µM (inactive). The GI50 (SK-OV-3) was > 100 µM (inactive), the GI50 (SK-MEL-28) was > 100 µM (inactive) and the GI50 (NCI-H460) was > 100 µM (inactive). The GI50 (SW-620) was > 100 µM (inactive) and the GI50 (UACC-62) was > 100 µM (inactive).

`COc1cc(C2c3cc4c(cc3OC(Nc3ccc(C(=O)O)cc3)C2C)OCO4)cc(OC)c1OC` (stereo not given) was tested, and the GI50 (CAKI-1) was 0.204 µM (active), the GI50 (HCT-15) was 0.294 µM and the GI50 (786-0) was 0.468 µM (active). For the same molecule, the GI50 (RPMI-8226) was 0.337 µM (active), the GI50 (RXF 393) was 0.115 µM (active) and the GI50 (T47D) was 0.458 µM (active). For the same molecule, the GI50 (OVCAR-4) was 0.458 µM (active), the GI50 (NCI-H522) was 0.376 µM (active) and the GI50 (SK-MEL-2) was 0.579 µM (active). The GI50 (CCRF-CEM) was 0.282 µM (active), the GI50 (HCC 2998) was 0.295 µM (active) and the GI50 (LOX IMVI) was 0.532 µM (active). For the same molecule, the GI50 (MDA-MB-231) was 0.189 µM (active), the GI50 (NCI/ADR-RES) was 0.29 µM (active) and the GI50 (ACHN) was 1.38 µM (inactive). For the same molecule, the GI50 (SK-OV-3) was 0.362 µM (active), the GI50 (SK-MEL-28) was 11.1 µM (inactive) and the GI50 (NCI-H460) was 0.326 µM (active). For the same molecule, the GI50 (SW-620) was 0.35 µM (active) and the GI50 (UACC-62) was 0.403 µM (active).

`CC(C)CC(=O)OC[n+]1cccc(-c2c(COC(=O)NC(C)C)c(COC(=O)NC(C)C)c3n2CCC3)c1` was tested, and the GI50 (CAKI-1) was 17.2 µM (inactive), the GI50 (HCT-15) was 66.8 µM and the GI50 (786-0) was 27.5 µM (inactive). The GI50 (RPMI-8226) was 15.2 µM (inactive), the GI50 (RXF 393) was 33.9 µM (inactive) and the GI50 (T47D) was 51.3 µM (inactive). The GI50 (OVCAR-4) was 38.5 µM (inactive), the GI50 (NCI-H522) was 23.7 µM (inactive) and the GI50 (SK-MEL-2) was 34 µM (inactive). The GI50 (CCRF-CEM) was 34.1 µM (inactive), the GI50 (HCC 2998) was > 100 µM (inactive) and the GI50 (LOX IMVI) was 26.8 µM (inactive). For the same molecule, the GI50 (MDA-MB-231) was 37.4 µM (inactive), the GI50 (NCI/ADR-RES) was 35.2 µM (inactive) and the GI50 (ACHN) was 24.9 µM (inactive). The GI50 (SK-OV-3) was 55.3 µM (inactive), the GI50 (SK-MEL-28) was > 100 µM (inactive) and the GI50 (NCI-H460) was 30.1 µM (inactive). For the same molecule, the GI50 (SW-620) was 51.1 µM (inactive) and the GI50 (UACC-62) was 25.6 µM (inactive).

With `COc1ccc(/C(CC2OC(=O)c3ccccc32)=N\NC(N)=O)cc1` (stereo not given) the GI50 (CAKI-1) was > 100 µM (inactive), the GI50 (HCT-15) was > 100 µM and the GI50 (786-0) was > 100 µM (inactive). For the same molecule, the GI50 (RPMI-8226) was > 100 µM (inactive), the GI50 (RXF 393) was > 100 µM (inactive) and the GI50 (T47D) was > 100 µM (inactive). The GI50 (OVCAR-4) was > 100 µM (inactive), the GI50 (NCI-H522) was > 100 µM (inactive) and the GI50 (SK-MEL-2) was > 100 µM (inactive). The GI50 (CCRF-CEM) was > 100 µM (inactive), the GI50 (HCC 2998) was > 100 µM (inactive) and the GI50 (LOX IMVI) was > 100 µM (inactive). For the same molecule, the GI50 (MDA-MB-231) was > 100 µM (inactive), the GI50 (NCI/ADR-RES) was > 100 µM (inactive) and the GI50 (ACHN) was > 100 µM (inactive). The GI50 (SK-OV-3) was > 100 µM (inactive), the GI50 (SK-MEL-28) was > 100 µM (inactive) and the GI50 (NCI-H460) was > 100 µM (inactive). For the same molecule, the GI50 (SW-620) was > 100 µM (inactive) and the GI50 (UACC-62) was > 100 µM (inactive).

For `CN(N)/N=N/c1[nH]cnc1[N+](=O)[O-]`, the GI50 (CAKI-1) was 20.8 µM (inactive), the GI50 (HCT-15) was > 100 µM and the GI50 (786-0) was 18.7 µM (inactive). The GI50 (RPMI-8226) was 22 µM (inactive), the GI50 (RXF 393) was > 100 µM (inactive) and the GI50 (T47D) was 20.6 µM (inactive). The GI50 (OVCAR-4) was 56.1 µM (inactive), the GI50 (NCI-H522) was > 100 µM (inactive) and the GI50 (SK-MEL-2) was > 100 µM (inactive). The GI50 (CCRF-CEM) was 5.01 µM (inactive), the GI50 (HCC 2998) was > 100 µM (inactive) and the GI50 (LOX IMVI) was 39.2 µM (inactive). The GI50 (MDA-MB-231) was 21.7 µM (inactive), the GI50 (NCI/ADR-RES) was 35.4 µM (inactive) and the GI50 (ACHN) was > 100 µM (inactive). The GI50 (SK-OV-3) was > 100 µM (inactive), the GI50 (SK-MEL-28) was > 100 µM (inactive) and the GI50 (NCI-H460) was > 100 µM (inactive). The GI50 (SW-620) was 81.1 µM (inactive) and the GI50 (UACC-62) was > 100 µM (inactive).

For `O=[N+]([O-])c1cc(Cl)ccc1S(=O)(=O)c1ccccc1`, the GI50 (CAKI-1) was > 100 µM (inactive), the GI50 (HCT-15) was 27.6 µM and the GI50 (786-0) was > 100 µM (inactive). For the same molecule, the GI50 (RPMI-8226) was > 100 µM (inactive), the GI50 (RXF 393) was 54.6 µM (inactive) and the GI50 (T47D) was 66.7 µM (inactive). For the same molecule, the GI50 (OVCAR-4) was 24.7 µM (inactive), the GI50 (NCI-H522) was 57.4 µM (inactive) and the GI50 (SK-MEL-2) was 17.3 µM (inactive). The GI50 (CCRF-CEM) was 29.8 µM (inactive), the GI50 (HCC 2998) was > 100 µM (inactive) and the GI50 (LOX IMVI) was 27.6 µM (inactive). For the same molecule, the GI50 (MDA-MB-231) was 51.3 µM (inactive), the GI50 (NCI/ADR-RES) was > 100 µM (inactive) and the GI50 (ACHN) was > 100 µM (inactive). For the same molecule, the GI50 (SK-OV-3) was > 100 µM (inactive), the GI50 (SK-MEL-28) was > 100 µM (inactive) and the GI50 (NCI-H460) was > 100 µM (inactive). The GI50 (SW-620) was > 100 µM (inactive) and the GI50 (UACC-62) was 53 µM (inactive).
